# *: point of attachment. AMC = Cc1cc(=O)oc2cc(N*)ccc12
# Legend:
# [1] = molecular target: T1, SIRT2 (Homo sapiens, UniProt Q8IXJ6); conditions: varied Lysyl, cited from earlier work
# T1 sequence (Q8IXJ6 1-389): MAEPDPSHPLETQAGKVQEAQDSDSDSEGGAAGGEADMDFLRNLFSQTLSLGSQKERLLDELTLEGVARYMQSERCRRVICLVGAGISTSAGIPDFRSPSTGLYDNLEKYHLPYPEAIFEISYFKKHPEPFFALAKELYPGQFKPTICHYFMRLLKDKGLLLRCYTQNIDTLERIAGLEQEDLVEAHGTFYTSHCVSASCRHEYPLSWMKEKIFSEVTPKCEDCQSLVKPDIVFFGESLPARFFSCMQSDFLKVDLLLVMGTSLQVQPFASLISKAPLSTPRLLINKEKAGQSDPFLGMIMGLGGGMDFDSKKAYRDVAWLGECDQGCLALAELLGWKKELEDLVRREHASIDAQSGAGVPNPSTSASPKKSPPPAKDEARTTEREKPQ
# [2] = molecular target: T1, SIRT2; experiment: Sirtuin activity with fluorogenic lysyl substrates; type: biochemical; conditions: 50 μM substrate, 500 μM NAD^+
# Procedure: (§1) The Ac-Lys(Succ.)-AMC substrate was tested for activity with recombinant preparations of human HDACs 1-11, SIRTs 1-4, 6 and 7, a complex of HDAC3 with a fragment of the activating protein NCOR1 and with HeLa nuclear extract, a rich source of active HDACs in their native multiprotein complexes.
# (§2) Enzyme and extract catalog products obtained from ENZO Life Sciences included: HDAC1 (Cat. # BML-SE456), HDAC2 (Cat. # BML-SE500), HDAC3 (Cat. # BML-SE507), HDAC3/NCOR1 Complex (Cat. # BML-SE515), HDAC6 (Cat. # BML-SE508), HDAC8 (Cat. # BML-SE145), HDAC10 (Cat. # BML-SE559), HDAC11 (Cat. # BML-SE560), SIRT1 (Cat. # BML-SE239), SIRT2 (Cat. # BML-SE251), SIRT3 (Cat. # BML-SE270), SIRT5 (Cat. # BML-SE555), HeLa Nuclear Extract (Cat. # BML-KI140), Trypsin (“Fluor de Lys Developer”, 80 mg/ml bovine trypsin in 1 mM HCl, Cat. # BML-KI105 or “Fluor de Lys Developer II”, 80 mg/ml bovine trypsin in 1 mM HCl, Cat. # BML-KI176). […] Enzymes obtained from BPS Bioscience, San Diego, Calif. included: human recombinants SIRT4 (Cat. #50015), SIRT6 (Cat. #50017), SIRT7 (Cat. #50018). HeLa whole cell extract was obtained from HeLa S3 cells (American Type Culture Collection) grown in a medium of MEM/10% fetal bovine serum (FBS) as follows: 1) 9×10^6 cells were suspended by trypsinization, followed by a phosphate buffered saline (PBS) rinse and addition of MEM/10% FBS (1.5 mL) to eliminate trypsin before transfer to a 15 mL conical tube; 2) cells were sedimented by a low speed centrifugation, gently resuspended in PBS and sedimented again and supernatant removed; 3) lysis was induced by resuspension in 0.8 mL 50 mM Tris/HCl, pH 8.0 with the non-denaturing detergent NP-40 (0.5%), placement on ice and brief vortexing every 5 min. for 30 min.; 4) 100 μl of a concentrated salt solution in the same buffer was added in order to bring the final buffer composition to 50 mM Tris/C1, pH 8.0, 137 mM NaCl, 2.7 mM KCl, 1 mM MgCl2, 0.5% NP-40; 5) particulate matter was cleared by centrifugation and the cleared lysate supernatant transferred to a 1.5 mL Eppendorf tube and stored on ice until use in activity assays.
# (§3) Assays were performed at 37° C., according to the manufacturer's instructions for the “SIRT1 Fluorometric Drug Discovery Kit” from Enzo Life Sciences (ELS) (Cat. # BML-AK555), with exceptions described as follows. Where indicated in figures and text, SIRT1 enzyme was replaced with another enzyme or extract and the “Fluor de Lys-SIRT1 Substrate” (Ac-Arg-His-Lys-Lys(Ac)-AMC; ELS Cat. # BML-KI-177) was replaced with another acetylated, succinylated or trifluoroacetylated substrate.
# [3] = molecular target: T2, SIRT3 (Homo sapiens, UniProt Q9NTG7); experiment: Sirtuin activity with fluorogenic lysyl substrates; type: biochemical; conditions: 50 μM substrate, 500 μM NAD^+
# T2 construct: purchased ENZO Life Sciences BML-SE270
# T2 sequence (Q9NTG7 1-399): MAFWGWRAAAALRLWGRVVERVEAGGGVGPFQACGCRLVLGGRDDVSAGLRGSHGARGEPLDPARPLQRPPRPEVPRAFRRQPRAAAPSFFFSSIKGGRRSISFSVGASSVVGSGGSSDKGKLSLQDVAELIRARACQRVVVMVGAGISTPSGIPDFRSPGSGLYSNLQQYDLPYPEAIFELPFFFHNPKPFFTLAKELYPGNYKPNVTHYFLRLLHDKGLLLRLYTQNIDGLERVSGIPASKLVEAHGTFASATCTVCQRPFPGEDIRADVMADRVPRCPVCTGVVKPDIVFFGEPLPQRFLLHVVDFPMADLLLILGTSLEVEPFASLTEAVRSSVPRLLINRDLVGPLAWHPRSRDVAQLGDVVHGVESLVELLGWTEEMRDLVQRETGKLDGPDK
# Procedure: as §1, §2, §3
# [4] = molecular target: T3, HDAC5 (Homo sapiens, UniProt Q9UQL6); experiment: HDAC activity with fluorogenic lysyl substrates; type: biochemical; conditions: 50 μM substrate
# T3 construct: made in house; host or cells: E. coli
# Procedure: as §1, §2, §3
# [5] = molecular target: T4, HDAC7 (Homo sapiens, UniProt Q8WUI4); experiment: HDAC activity with fluorogenic lysyl substrates; type: biochemical; conditions: 50 μM substrate
# T4 construct: made in house; host or cells: E. coli
# T4 sequence (Q8WUI4 483-903): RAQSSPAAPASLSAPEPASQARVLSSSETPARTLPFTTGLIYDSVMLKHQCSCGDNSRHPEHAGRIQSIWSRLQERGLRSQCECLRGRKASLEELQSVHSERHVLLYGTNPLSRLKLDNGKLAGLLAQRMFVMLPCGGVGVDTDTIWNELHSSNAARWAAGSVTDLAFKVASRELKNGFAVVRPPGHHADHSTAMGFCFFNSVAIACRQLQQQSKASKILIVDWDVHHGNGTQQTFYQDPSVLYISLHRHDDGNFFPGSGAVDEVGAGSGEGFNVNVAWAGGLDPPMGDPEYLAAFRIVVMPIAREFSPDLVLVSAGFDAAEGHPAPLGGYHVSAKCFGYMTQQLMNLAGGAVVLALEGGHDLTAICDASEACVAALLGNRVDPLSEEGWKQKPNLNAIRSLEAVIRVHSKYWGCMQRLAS
# Procedure: as §1, §2, §3
# [6] = molecular target: T5, HDAC9 (Homo sapiens, UniProt Q9UKV0); experiment: HDAC activity with fluorogenic lysyl substrates; type: biochemical; conditions: 50 μM substrate
# T5 construct: made in house; host or cells: E. coli
# Procedure: as §1, §2, §3
# [7] = test system: HDAC4; experiment: HDAC activity with fluorogenic lysyl substrates; type: biochemical, human; conditions: 50 μM substrate
# Procedure: as §1
# Enzyme and extract catalog products obtained from ENZO Life Sciences included: HDAC1 (Cat. # BML-SE456), HDAC2 (Cat. # BML-SE500), HDAC3 (Cat. # BML-SE507), HDAC3/NCOR1 Complex (Cat. # BML-SE515), HDAC6 (Cat. # BML-SE508), HDAC8 (Cat. # BML-SE145), HDAC10 (Cat. # BML-SE559), HDAC11 (Cat. # BML-SE560), SIRT1 (Cat. # BML-SE239), SIRT2 (Cat. # BML-SE251), SIRT3 (Cat. # BML-SE270), SIRT5 (Cat. # BML-SE555), HeLa Nuclear Extract (Cat. # BML-KI140), Trypsin (“Fluor de Lys Developer”, 80 mg/ml bovine trypsin in 1 mM HCl, Cat. # BML-KI105 or “Fluor de Lys Developer II”, 80 mg/ml bovine trypsin in 1 mM HCl, Cat. # BML-KI176). […] Enzymes obtained from BPS Bioscience, San Diego, Calif. included: human recombinants SIRT4 (Cat. #50015), SIRT6 (Cat. #50017), SIRT7 (Cat. #50018). […]
# [8] = test system: HeLa cells; experiment: Intact HeLa cell desuccinylation/deacetylation assay; type: cell-based, human; conditions: 200 μM Ac-Lys(Ac.)-AMC, four hours, TSA 1 μM
# Procedure: HeLa cells were cultured to 95% confluence in the wells of ½-volume 96-well plates. […] After the indicated time, cells were lysed with detergent and trypsin added to release AMC from desuccinylated or deacetylated substrate and then fluorescence read (Ex.360 nm/Em. 460 nm). For “0 hr.” samples, substrate, inhibitors, lysis buffer and trypsin were added simultaneously. Bars represent the mean of three determinations and the error bars the Standard Deviation from that mean. Statistically significant differences between the fluorescences of “4 hr.” and “0 hr.” samples (Student's t-test) are indicated by asterisks as follows: *,p<0.02; **, p<0.002.
# An assay employing Ac-Lys(Ac.)-AMC to measure the HDAC and sirtuin deacetylase activity of intact cultured cells has been described (Howitz, K. T. et al. Nature 425, 191-196 (2003); Product Manual of Enzo Life Sciences Cat. # BML-AK-503, “HDAC Fluorimetric Cellular Activity Assay Kit”, Appendix F). Ac-Lys(Ac)-AMC is added to the culture medium, enters the cells and is deacetylated by HDACs and sirtuins in their native intracellular context. Measurement of the amount of Ac-Lys-AMC produced by intracellular deacetylation is then accomplished by detergent lysis of the cells and release of the AMC fluorophore by trypsin. We therefore investigated whether Ac-Lys(Succ.)-AMC could be used to measure intracellular desuccinylation activity, in a similar fashion, with cultured HeLa cells. […] These latter, deacetylation results are consistent with previous observations made with this assay system (see Howitz, K. T. et al. Nature 425, 191-196 (2003) and Appendix F).
# Assays (FIG. 10) were performed according to the manufacturer's instructions for the ““HDAC Fluorometric Cellular Activity Assay Kit” (ELS Cat. # BML-AK503), with exceptions described as follows. Where indicated the “Fluor de Lys Substrate” (Ac-Lys(Ac.)-AMC; ELS Cat. # BML-KI104) was replaced with Ac-Lys(Succ.)-AMC (1).
# [9] = test system: HeLa cell extracts; experiment: HeLa cell extract Ac-Lys(ε-succinyl)-AMC desuccinylation activity; type: biochemical, human; conditions: 50 μM Ac-Lys(Succ.)-AMC, +NAD^+ 500 μM; TSA 1 μM, suramin 200 μM
# Procedure: as §2
# Assays were performed at 37° C., according to the manufacturer's instructions for the “SIRT1 Fluorometric Drug Discovery Kit” from Enzo Life Sciences (ELS) (Cat. # BML-AK555), with exceptions described as follows. […]
# [10] = molecular target: T6, SIRT5 (Homo sapiens, UniProt Q9NXA8); experiment: Inhibition of SIRT5 desuccinylation of Ac-Lys(Succ.)-AMC; type: biochemical; parameters: purchased Enzo Life Sciences BML-SE555; conditions: three parameter Hill-Slope model, bottom fixed at 0
# T6 sequence (Q9NXA8 37-310): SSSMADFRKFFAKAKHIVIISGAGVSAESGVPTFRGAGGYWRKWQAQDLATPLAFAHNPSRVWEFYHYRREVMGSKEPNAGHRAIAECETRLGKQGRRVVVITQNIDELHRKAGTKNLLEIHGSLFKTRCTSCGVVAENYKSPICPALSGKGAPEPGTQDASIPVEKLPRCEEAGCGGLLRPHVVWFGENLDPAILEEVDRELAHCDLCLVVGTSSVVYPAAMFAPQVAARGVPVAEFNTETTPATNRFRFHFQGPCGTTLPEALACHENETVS
# Description: Signal development (trypsin treatment) and fluorescence readings were done as described, as were the conversion of fluorescence increases to rates in units of pmol/min/μg (FIG. 5). Data points represent the mean of three determinations and the error bars are the standard deviations from those means. The dose-response curve was derived from a least-squares fit to a three parameter Hill-Slope model (bottom fixed at 0 pmol/min/μg), y=top/(1+(x/IC50)^slope).
# Data points represent the mean of three determinations and the error bars are the standard deviations from those means. The dose-response curve was derived from a least-squares fit to a three parameter Hill-Slope model (bottom fixed at 0 pmol/min/μg), y=top/(1+(x/IC50)^slope).
# as §3
# Chain of HDAC4 (P56524 626-1084 limits assumed): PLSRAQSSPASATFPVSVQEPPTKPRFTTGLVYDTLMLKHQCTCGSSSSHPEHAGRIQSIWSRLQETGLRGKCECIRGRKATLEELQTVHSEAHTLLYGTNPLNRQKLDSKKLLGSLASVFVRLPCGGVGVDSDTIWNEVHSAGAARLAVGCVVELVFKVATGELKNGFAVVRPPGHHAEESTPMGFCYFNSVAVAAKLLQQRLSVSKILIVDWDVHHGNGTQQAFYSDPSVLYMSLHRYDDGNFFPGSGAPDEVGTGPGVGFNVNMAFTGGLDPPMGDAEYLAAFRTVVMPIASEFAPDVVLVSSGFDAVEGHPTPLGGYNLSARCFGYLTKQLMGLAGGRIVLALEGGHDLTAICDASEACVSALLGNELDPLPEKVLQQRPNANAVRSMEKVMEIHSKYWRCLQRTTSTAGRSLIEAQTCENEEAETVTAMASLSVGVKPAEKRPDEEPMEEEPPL
# T3 sequence (Q9UQL6 656-1122): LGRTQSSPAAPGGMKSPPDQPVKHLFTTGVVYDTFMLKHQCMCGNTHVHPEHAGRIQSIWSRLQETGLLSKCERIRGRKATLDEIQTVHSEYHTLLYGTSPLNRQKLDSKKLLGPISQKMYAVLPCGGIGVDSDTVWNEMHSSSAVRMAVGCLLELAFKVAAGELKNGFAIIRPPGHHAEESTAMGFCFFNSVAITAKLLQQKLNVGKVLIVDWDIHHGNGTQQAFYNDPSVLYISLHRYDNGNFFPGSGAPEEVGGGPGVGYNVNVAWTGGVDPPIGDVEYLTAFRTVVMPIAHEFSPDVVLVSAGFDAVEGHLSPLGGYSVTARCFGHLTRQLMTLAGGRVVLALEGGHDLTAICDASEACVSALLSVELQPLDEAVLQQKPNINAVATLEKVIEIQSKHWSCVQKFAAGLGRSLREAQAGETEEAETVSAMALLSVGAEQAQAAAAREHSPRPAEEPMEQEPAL
# T5 sequence (Q9UKV0 644-1066 isoform Q9UKV0-5): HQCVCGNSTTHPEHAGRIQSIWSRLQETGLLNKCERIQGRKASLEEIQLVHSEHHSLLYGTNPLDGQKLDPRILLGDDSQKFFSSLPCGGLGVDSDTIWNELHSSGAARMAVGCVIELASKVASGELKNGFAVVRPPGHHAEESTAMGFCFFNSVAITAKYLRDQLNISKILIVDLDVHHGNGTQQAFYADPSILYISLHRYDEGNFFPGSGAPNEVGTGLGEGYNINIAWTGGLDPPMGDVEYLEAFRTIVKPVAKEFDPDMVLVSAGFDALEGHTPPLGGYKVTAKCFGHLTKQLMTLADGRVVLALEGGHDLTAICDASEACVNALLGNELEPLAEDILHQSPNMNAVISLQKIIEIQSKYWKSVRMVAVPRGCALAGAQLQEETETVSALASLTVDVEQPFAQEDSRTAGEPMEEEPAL
compound,measurement,setting,value
"Hist. H3 1-20, K9Ac: unlabeled peptide, histone H3 residues 1-20 acetylated on lysine-9",Km,"[1]; Borra et al., 2004, read-out: Km (Lysyl substrate)",24 µM
same,kcat,"[1]; Borra et al., 2004",0.24 s⁻¹
"Ac-Gln-Pro-Lys-Lys(Ac)-AMC (Ac-QPKK(Ac)-{AMC}; SMILES CC(=O)NCCCC[C@H](NC(=O)[C@H](CCCCN)NC(=O)[C@@H]1CCCN1C(=O)[C@H](CCC(N)=O)NC(C)=O)C(=O)Nc1ccc2c(C)cc(=O)oc2c1) [Ac-QPKK(Ac)-AMC, reference compound]",Activity (pmol/min/μg),[2],Ac-QPKK(Ac)-AMC/18.6 pmol/min/μg
same,Activity (pmol/min/μg),[3],Ac-QPKK(Ac)-AMC/10.8 pmol/min/μg
"Ac-Leu-Gly-Lys(TFAc)-AMC [Ac-LGK(TFAc)-AMC, reference compound]",Activity (pmol/min/μg),[4],Ac-LGK(TFAc)-AMC/9960 pmol/min/μg
same,Activity (pmol/min/μg),[5],Ac-LGK(TFAc)-AMC/1670 pmol/min/μg
same,Activity (pmol/min/μg),[6],Ac-LGK(TFAc)-AMC/3330 pmol/min/μg
same,Activity (pmol/min/μg),[7],Ac-LGK(TFAc)-AMC/1390 pmol/min/μg
CC(/C=C/C(=O)NO)=C\[C@@H](C)C(=O)c1ccc(N(C)C)cc1 [trichostatin A],Fraction of deacetylation sensitive to inhibitor,[8],> 90%
same,Inhibition of the total 2 hr. fluorescence increase,[9],~50%
Cc1ccc(C(=O)Nc2ccc(S(=O)(=O)O)c3cc(S(=O)(=O)O)cc(S(=O)(=O)O)c23)cc1NC(=O)c1cccc(NC(=O)Nc2cccc(C(=O)Nc3cc(C(=O)Nc4ccc(S(=O)(=O)O)c5cc(S(=O)(=O)O)cc(S(=O)(=O)O)c45)ccc3C)c2)c1 [suramin],Inhibition of the total 2 hr. fluorescence increase,[9],~50%
same,slope (fitted parameter of dose-response curve),[10],2.37
same,top (fitted parameter of dose-response curve),[10],127 pmol/min/µg

# Reference: patent US10920265B2, “Compounds and methods for detection of enzymes that remove methyl succinyl groups from epsilon-amino lysine moieties” (Enzo Life Sciences, Inc., priority 2011, dated 2021)
